The source made the active and inactive calls. The rule behind the calls is not given here.
What was measured:
[1] = system: HUVEC; assay: Cytotoxicity against HUVEC assessed as reduction in cell viability by MTT assay; format: cell-based, Homo sapiens
[2] = Cytotoxicity against human DU145 cells assessed as reduction in cell viability by MTT assay; format: functional, cell-based, DU-145
[3] = system: A549; assay: Cytotoxicity against human A549 cells assessed as reduction in cell viability by MTT assay; format: functional, cell-based
[4] = Cytotoxicity against human SKOV3 cells assessed as reduction in cell viability by MTT assay; format: functional, cell-based, SK-OV-3
[5] = system: MCF7; assay: Cytotoxicity against human MCF7 cells assessed as reduction in cell viability by MTT assay; format: functional, cell-based
[6] = system: MCF7; assay: Antiproliferative activity against human MCF7 cells assessed as decrease in cell proliferation at 5 to 10 uM after 24 hrs by bromodeoxyuridine cell proliferation assay relative to untreated control; format: functional, cell-based
[7] = system: MCF7; assay: Induction of apoptosis in human MCF7 cells assessed as caspase-9 activation using AFC-conjugated Ac-LEHD as substrate at 5 to 10 uM incubated for 24 to 48 hrs by fluorescence assay relative to untreated control; format: functional
[8] = system: MCF7; assay: Induction of apoptosis in human MCF7 cells assessed as caspase-3 activation using AFC-conjugated Ac-DEVD as substrate at 5 to 10 uM incubated for 24 to 48 hrs by fluorescence assay relative to untreated control; format: functional
[9] = Homo sapiens, HUVEC, read-out: IC50
[10] = Homo sapiens, DU-145, read-out: IC50
[11] = Homo sapiens, A549, read-out: IC50
[12] = Homo sapiens, SK-OV-3, read-out: IC50
[13] = Homo sapiens, MCF7, read-out: IC50

CCCCCCCC/C=C\CCCCCCCC(=O)O[C@H](COC(=O)CCCCCCCC1CC1CCCCCCCC)CO[C@@H]1O[C@H](CO)[C@@H](O)[C@H](O)[C@H]1O (stereo partly specified)
IC50 [1, 9]: 99.8 µM
IC50 [2, 10]: 38.9 µM
IC50 [3, 11]: 41.6 µM
IC50 [4, 12]: 35.6 µM
IC50 [5, 13]: 38.2 µM

CCCCCCCCC1CC1CCCCCCCC(=O)OC[C@H](CO[C@@H]1O[C@H](COC(C)=O)[C@@H](OC(C)=O)[C@H](OC(C)=O)[C@H]1OC(C)=O)OC(=O)CCCCCCCC1CC1CCCCCCCC (stereo partly specified)
IC50 ([1]; huvec): Not Active
IC50 ([2]; du-145): Not Active
IC50 ([3]; a549): Not Active
IC50 ([4]; sk-ov-3): Not Active
IC50 ([5]; mcf7): Not Active

CCCCCCCC/C=C\CCCCCCCC(=O)O[C@H](COC(=O)CCCCCCCC1CC1CCCCCCCC)CO[C@@H]1O[C@H](COC(C)=O)[C@@H](OC(C)=O)[C@H](OC(C)=O)[C@H]1OC(C)=O (stereo partly specified)
IC50 [1, 9]: 122 µM
IC50 [2, 10]: 186 µM
IC50 ([3]; a549): Not Active
IC50 ([4]; sk-ov-3): Not Active
IC50 [5, 13]: 94.2 µM

CCCCCCCCCCCC(=O)OC[C@H](CO[C@@H]1O[C@H](CO)[C@@H](O)[C@H](O)[C@H]1O)OC(=O)CCCCCCCCCCC
IC50 [1, 9]: 96.1 µM
IC50 [2, 10]: 54.9 µM
IC50 [3, 11]: 35.6 µM
IC50 [4, 12]: 44.4 µM
IC50 [5, 13]: 32.6 µM

C=CCCCCCCCCC(=O)OC[C@H](CO[C@@H]1O[C@H](CO)[C@@H](O)[C@H](O)[C@H]1O)OC(=O)CCCCCCCCC=C
IC50 [1, 9]: 126 µM
IC50 [2, 10]: 119 µM
IC50 [3, 11]: 106 µM
IC50 [4, 12]: 89.6 µM
IC50 [5, 13]: 32.5 µM

CCCCCCCC/C=C\CCCCCCCC(=O)OC[C@H](CO[C@@H]1O[C@H](COC(C)=O)[C@@H](OC(C)=O)[C@H](OC(C)=O)[C@H]1OC(C)=O)OC(=O)CCCCCCC/C=C\CCCCCCCC
IC50 ([1]; huvec): Not Active
IC50 ([2]; du-145): Not Active
IC50 ([3]; a549): Not Active
IC50 ([4]; sk-ov-3): Not Active
IC50 ([5]; mcf7): Not Active

CCCCCCCC/C=C\CCCCCCCC(=O)OC[C@H](CO[C@@H]1O[C@H](CO)[C@@H](O)[C@H](O)[C@H]1O)OC(=O)CCCCCCC/C=C\CCCCCCCC
IC50 [1, 9]: 110 µM
IC50 [2, 10]: 20.1 µM
IC50 [3, 11]: 18.2 µM
IC50 [4, 12]: 19.1 µM
IC50 [5, 13]: 17.6 µM
Activity [6]: Active
fold change (FC) [7]: 2
fold change (FC) [8]: 2

C=CCCCCCCCCC(=O)OC[C@H](CO[C@@H]1O[C@H](COC(C)=O)[C@@H](OC(C)=O)[C@H](OC(C)=O)[C@H]1OC(C)=O)OC(=O)CCCCCCCCC=C
IC50 [1, 9]: 119 µM
IC50 [2, 10]: 33 µM
IC50 [3, 11]: 30.2 µM
IC50 [4, 12]: 29.4 µM
IC50 [5, 13]: 25.6 µM

COc1cccc2c1C(=O)c1c(O)c3c(c(O)c1C2=O)C[C@@](O)(C(=O)CO)C[C@@H]3O[C@H]1C[C@H](N)[C@H](O)[C@H](C)O1 [DOXORUBICIN]
IC50 [1, 9]: 79.6 µM
IC50 [2, 10]: 0.7 µM
IC50 [4, 12]: 0.7 µM

CCCCCCCCC1CC1CCCCCCCC(=O)OC[C@H](CO[C@@H]1O[C@H](CO)[C@@H](O)[C@H](O)[C@H]1O)OC(=O)CCCCCCCC1CC1CCCCCCCC (stereo partly specified)
IC50 [1, 9]: 120 µM
IC50 [2, 10]: 210 µM
IC50 [3, 11]: 124 µM
IC50 [4, 12]: 112 µM
IC50 [5, 13]: 99.8 µM

CCCCCCCCCCCC(=O)OC[C@H](CO[C@@H]1O[C@H](COC(C)=O)[C@@H](OC(C)=O)[C@H](OC(C)=O)[C@H]1OC(C)=O)OC(=O)CCCCCCCCCCC
IC50 ([1]; huvec): Not Active
IC50 ([2]; du-145): Not Active
IC50 ([3]; a549): Not Active
IC50 ([4]; sk-ov-3): Not Active
IC50 ([5]; mcf7): Not Active

From ChEMBL document CHEMBL3758176, “Synthesis of dihydrosterculic acid-based monoglucosyl diacylglycerol and its analogues and their biological evaluation” (Eur J Med Chem, 2016)
